Laboratory results from PMC8535469, “Insight into the Binding and Hydrolytic Preferences of hNudt16 Based on Nucleotide Diphosphate Substrates” (International Journal of Molecular Sciences, 2021).
Read-outs that look alike come from different tables or passages of the source.

Tests used:
[1] = biological target: T1, hNudt16E76Q (Homo sapiens, UniProt Q96DE0, E76Q); assay: Thermal stability of hNudt16E76Q with ligands, DSF with SYPRO Orange; type: binding; conditions: 5 µM hNudt16E76Q, 20 mM MgCl2, 0.5 mM ligand, 4× SYPRO Orange; for ∆Tm, DSF (with SYPRO Orange): relative to apo
T1 construct: 4xHis (four added histidines); made in house; host or cells: E. coli Rosetta 2 (DE3), pET16b
T1 sequence (Q96DE0 whole entry E76Q): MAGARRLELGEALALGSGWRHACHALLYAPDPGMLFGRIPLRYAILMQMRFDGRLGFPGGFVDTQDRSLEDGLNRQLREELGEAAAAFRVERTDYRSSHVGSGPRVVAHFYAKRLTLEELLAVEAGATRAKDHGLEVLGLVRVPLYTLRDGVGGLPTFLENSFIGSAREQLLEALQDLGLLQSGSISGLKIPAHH
Experimental: The protein thermal stability of wild-type hNudt16 and all tested mutants in the presence of increasing Mg^2+ ion concentration was measured using DSF with SYPRO orange dye on CFX RT-PCR (Bio-Rad, Hercules, CA, USA). This method is based on the change in fluorescence of the SYPRO orange dye in an aqueous buffer, which is strongly quenched, while its binding to the exposed hydrophobic regions of thermally unfolded protein results in an increased fluorescence. The optimal concentrations of protein, SYPRO orange dye, and buffer composition, in particular ion content, were determined. The samples were prepared and measured in clear 96-well multiplate PCR plates for RT-PCR (Bio-Rad, Hercules, CA, USA). […] The individual components of the solution were added in equal volumes to each well, with a final sample volume of 25 μL/well. The samples were gently mixed, and the 96-well plate was covered with optically clear PCR sealing tape (Bio-Rad, Hercules, CA, USA) to prevent evaporation. […] The data processing procedure was performed using Bio-Rad CFX Manager (version 1.6.541.1028), and melting point temperatures were calculated as the minimum of the first derivative plot.
(§1) Protein thermal stability in the presence of various ligands was measured using two DSF methods: assays with SYPRO orange dye and dye-free assays. DSF assays with SYPRO orange dye were performed at specific ligand concentrations for each protein–ligand pair. This measurement was performed as described in Section 4.6.1, with a constant MgCl2 concentration of 20 mM and a concentration of the tested ligand maintained at 0.5 mM. DSF dye-free measurements were performed using a Prometheus NT.48 nanoDSF device (NanoTemper Technologies, München, Germany). The composition of the samples was identical to that in the DSF with SYPRO orange dye measurements, without the addition of any dye. […] The measurements were performed at a single ligand concentration for all ligands. After 10 min of pre-incubation, the samples were loaded into standard capillaries (NanoTemper Technologies, München, Germany). […] We fitted the melting temperatures (Tm) globally for at least three independent experiments (but separately for different DSF methods).

[2] = biological target: T1, hNudt16E76Q; assay: Thermal stability of hNudt16E76Q with ligands, dye-free nanoDSF; type: binding; conditions: for Tm, nanoDSF (Dye-Free) / ∆Tm, nanoDSF (Dye-Free): 5 µM hNudt16E76Q, 20 mM MgCl2, 0.5 mM ligand; for ∆Tm, nanoDSF (Dye-Free): relative to apo
Experimental: as §1

[3] = biological target: hNudt16 (Homo sapiens, UniProt Q96DE0); assay: Enzymatic hydrolysis catalyzed by hNudt16, products quantified by HPLC; type: biochemical; set-up: 4xHis (four added histidines); made in house; conditions: 20 µM substrate, 37 °C; for Hydrolysis Products / Hydrolysis Rate, v/[E]0 (hydrolyzed substrate per minute per [enzyme] µM) / Hydrolysis Rate, v/µg (hydrolyzed substrate per minute per enzyme µg): pH 7.9, 6 mM MgCl2, nd = hydrolysis products not detected; for Susceptibility to hydrolysis by hNudt16 (in words): HPLC
Sequence of hNudt16 (Q96DE0 whole entry): as the sequence (Q96DE0 whole entry E76Q) above, with Q76E counted along it
Experimental: Enzymatic hydrolysis catalyzed by hNudt16 was performed at 37 °C in 40 mM Tris buffer (pH 7.9) containing 100 mM NaCl, 6 mM MgCl2, and 2 mM DTT. The concentration of the investigated dinucleotides and mononucleotides was 20 µM in the reaction mixture.
The hydrolytic susceptibility of the compounds was studied using HPLC. Before each experiment, 1 mL of buffer solution containing the analyte was incubated at 37 °C for 10 min. The hydrolysis process was initiated by the addition of hNudt16. To analyze the reaction progress, 200-µL aliquots of the reaction mixture were withdrawn and incubated at 96 °C for 5 min to stop the reaction through heat inactivation of the enzyme. The samples were then subjected to an HPLC system (Agilent 1200 series, Agilent Technologies, California, USA) with a reverse-phase Supelcosil LC-18-T column and UV/VIS detector. The substrates and hydrolysis products were eluted at 20 °C with a linear gradient of methanol in 0.1 M KH2PO4 (from 0% to 40%) over 15 min at a flow rate of 1.0 mL/min. Changes in the absorbance at 260 nm were continuously monitored during the analysis. Hydrolysis products were identified by comparing their retention times with those of the reference samples. The extent of decapping, determined as the percentage of the hydrolyzed substrate, was calculated using the area under the chromatographic peak of the respective compounds.

[4] = biological target: T1, hNudt16E76Q; assay: Microscale thermophoresis (MST) binding, two independent binding sites model; conditions: for ΔGdiss1 (for Kd1): calculated as −RTlnKd from MST Kd1; for ΔGdiss2 (for Kd2): calculated as −RTlnKd from MST Kd2
Experimental: Binding constants for protein–ligand pairs were established using the MST method. The hNudt16 E76Q was labeled with RED-tris-NTA 2nd Generation dye (Monolith HIS-tag labeling Kit, NanoTemper Technologies, München, Germany) according to the manufacturer’s instructions. Measurements were carried out in a wide range of ligand concentrations, selected after preliminary tests for each of the ligands. The results obtained were used to determine of binding parameters for a given ligand. Each MST measurement consisted of a series of 16 serial 1:2 dilutions of the ligand, and was performed at a constant dye-labeled protein concentration of 50 nM. After 10 min of pre-incubation, dye-labeled protein–ligand samples were manually loaded into Monolith™ NT.115 Premium Capillaries (NanoTemper Technologies, München, Germany) and analyzed using the Monolith NT.115 (NanoTemper Technologies). […] Analysis was performed using Origin package (OriginLab, Northampton, MA, USA) and dissociation constants were fitted globally for a series of at least six MST pseudo-titration experiments for each ligand. Up to 10 replicates were performed for some ligands.
For the dissociation constants obtained, we also calculated the free energy associated with the dissociation of the complex ΔGdiss according to the equation: ΔGdiss=−RTlnKd.

[5] = stronger binding site, 50 nM dye-labeled protein, read-out: Kd1
[6] = second, weaker binding site, read-out: Kd2

SMILES	Tm, DSF (with SYPRO Orange) [1]	∆Tm, DSF (with SYPRO Orange) [1]	Tm, nanoDSF (Dye-Free) [2]	∆Tm, nanoDSF (Dye-Free) [2]	Hydrolysis Products [3]	Hydrolysis Rate, v/[E]0 (hydrolyzed substrate per minute per [enzyme] µM) [3]	Hydrolysis Rate, v/µg (hydrolyzed substrate per minute per enzyme µg) [3]	ΔGdiss1 (for Kd1) [4]	Kd [4, 5]	ΔGdiss2 (for Kd2) [4]	Kd [4, 6]	ΔTm relative to the apo form, both DSF and nanoDSF ([2]; 0.5 mM ligand, stated for both types of measurements)	Susceptibility to hydrolysis by hNudt16 (in words) [3]
Nc1ncnc2c1ncn2[C@@H]1O[C@H](COP(=O)(O)OP(=O)(O)OC[C@H]2O[C@@H](n3cnc4c(N)ncnc43)[C@H](O)[C@@H]2O)[C@@H](O)[C@H]1O [AppA]	65.2 ± 0.1 °C	1.5 ± 0.1 °C	66.8 ± 0.1 °C	1.7 ± 0.1 °C	AMP	40.8 ± 2.9 µM/min/[E]0	1.70 ± 0.12 µM/min/µg	4.192 kcal/mol	833 µM				
Nc1ccn([C@@H]2O[C@H](COP(=O)(O)OP(=O)(O)O)[C@@H](O)[C@H]2O)c(=O)n1 [CDP, Cytidine diphosphate]	65.6 ± 0.1 °C	1.81 ± 0.1 °C	66.8 ± 0.1 °C	1.66 ± 0.1 °C									
Nc1nc2c(ncn2[C@@H]2O[C@H](COP(=O)(O)OP(=O)(O)O)[C@@H](O)[C@H]2O)c(=O)[nH]1 [GDP, Guanosine diphosphate]	77.0 ± 0.1 °C	13.3 ± 0.1 °C	78.6 ± 0.1 °C	13.5 ± 0.1 °C				8.97 kcal/mol	0.258 ± 0.045 µM	5.911 kcal/mol	45.6 ± 2.4 µM		
Nc1nc2c(ncn2[C@@H]2O[C@H](COP(=O)(O)OP(=O)(O)OP(=O)(O)OC[C@H]3O[C@@H](n4cnc5c(=O)[nH]c(N)nc54)[C@H](O)[C@@H]3O)[C@@H](O)[C@H]2O)c(=O)[nH]1 [GpppG]	74.8 ± 0.1 °C	11.0 ± 0.1 °C	76.0 ± 0.1 °C	10.9 ± 0.1 °C									
O=c1[nH]cnc2c1ncn2[C@@H]1O[C@H](COP(=O)(O)OP(=O)(O)O)[C@@H](O)[C@H]1O [IDP, Inosine diphosphate]	81.5 ± 0.1 °C	17.8 ± 0.1 °C	82.9 ± 0.1 °C	17.8 ± 0.1 °C				10.04 kcal/mol		8.078 kcal/mol	1.2 ± 0.2 µM	17.5–18.0 °C	very rapid hydrolysis reaction
NC(=O)c1ccc[n+]([C@@H]2O[C@H](COP(=O)([O-])OP(=O)(O)OC[C@H]3O[C@@H](n4cnc5c(N)ncnc54)[C@H](O)[C@@H]3O)[C@@H](O)[C@H]2O)c1 [NAD, Nicotinamide adenine dinucleotide]	63.7 ± 0.1 °C	0.0 ± 0.1 °C	66.1 ± 0.1 °C	1.1 ± 0.1 °C	NMN + AMP	3.4 ± 0.4 µM/min/[E]0	0.14 ± 0.02 µM/min/µg						
NC(=O)C1=CN([C@@H]2O[C@H](COP(=O)(O)OP(=O)(O)OC[C@H]3O[C@@H](n4cnc5c(N)ncnc54)[C@H](O)[C@@H]3O)[C@@H](O)[C@H]2O)C=CC1 [NADH, Reduced NAD+]	64.9 ± 0.1 °C	1.1 ± 0.1 °C	67.4 ± 0.1 °C	2.4 ± 0.1 °C	AMP + NMNH	18.7 ± 1.5 µM/min/[E]0	0.78 ± 0.06 µM/min/µg						
CC(C)(COP(=O)(O)OP(=O)(O)OC[C@H]1O[C@@H](n2cnc3c(N)ncnc32)[C@H](O)[C@@H]1O)[C@@H](O)C(=O)NCCC(=O)NCCS [dpCoA, Dephospho-coenzyme A]	67.0 ± 0.1 °C	3.3 ± 0.1 °C	68.1 ± 0.1 °C	3.1 ± 0.1 °C	AMP + dpCop	18.0 ± 1.3 µM/min/[E]0	0.75 ± 0.05 µM/min/µg	5.951 kcal/mol	43 µM	≤2.481 kcal/mol	≥ 15000 µM		
C[n+]1cn([C@@H]2O[C@H](COP(=O)(O)OP(=O)(O)O)[C@@H](O)[C@H]2O)c2nc(N)[nH]c(=O)c21 [m^7GDP, 7-methylguanosine diphosphate]	64.4 ± 0.1 °C	0.7 ± 0.1 °C	66.7 ± 0.1 °C	1.6 ± 0.1 °C									resistant to hydrolytic cleavage
Cn1c[n+]([C@@H]2O[C@H](COP(=O)(O)OP(=O)([O-])OP(=O)(O)OC[C@H]3O[C@@H](n4cnc5c(=O)[nH]c(N)nc54)[C@H](O)[C@@H]3O)[C@@H](O)[C@H]2O)c2nc(N)[nH]c(=O)c21 [m^7GpppG]	72.3 ± 0.1 °C	8.5 ± 0.1 °C	73.5 ± 0.1 °C	8.4 ± 0.1 °C				8.026 kcal/mol	1.7 µM		230 ± 57 µM		
